In patent publication US20260232658A1, “AZETIDINYL BENZOXAZOLE COMPOUNDS AND THEIR USE AS MER AND AXL INHIBITORS” (DONG-A ST CO., LTD., priority 2022, published 2026):

What was measured:
[1] = biological target: T1, human AXL (473-end) (Homo sapiens, UniProt P30530); test: HTRF kinase activity biochemical assay, AXL; conditions: recombinant kinase, 10 uM ATP, 30 minutes pre-incubation; read-out: HTRF AXL IC50;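 note: phosphorylation of a biotinylated tyrosine kinase substrate detected via Eu3+-cryptate anti-TK antibody and streptavidin-XL665, fluorescence read after a 1 h incubation at room temperature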
T1 construct: human AXL (473-end); purchased SignalChem, Canada
T1 sequence (P30530 473-894 limits assumed): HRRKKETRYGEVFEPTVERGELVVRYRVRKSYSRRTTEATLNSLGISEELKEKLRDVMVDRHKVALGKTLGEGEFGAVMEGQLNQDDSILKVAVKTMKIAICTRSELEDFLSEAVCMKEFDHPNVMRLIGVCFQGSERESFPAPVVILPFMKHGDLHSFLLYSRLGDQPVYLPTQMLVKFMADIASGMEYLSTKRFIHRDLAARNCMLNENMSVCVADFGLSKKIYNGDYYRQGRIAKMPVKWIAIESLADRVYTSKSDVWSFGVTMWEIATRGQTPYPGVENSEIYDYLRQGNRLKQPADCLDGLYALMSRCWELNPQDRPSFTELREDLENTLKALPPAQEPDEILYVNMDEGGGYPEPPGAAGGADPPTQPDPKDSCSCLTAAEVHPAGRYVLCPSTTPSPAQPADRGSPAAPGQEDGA

[2] = biological target: T2, human MER (528-end) (Homo sapiens, UniProt Q12866); test: HTRF kinase activity biochemical assay, MER; conditions: recombinant kinase, 10 uM ATP, 30 minutes pre-incubation; read-out: HTRF MERTK IC50;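 note: phosphorylation of a biotin-tagged tyrosine kinase substrate detected by Eu3+-cryptate antibody and streptavidin-XL665 time-resolved fluorescence, read after 1 h at room temperature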
T2 construct: human MER (528-end); purchased Carnabio, Japan
T2 sequence (Q12866 528-999 limits assumed): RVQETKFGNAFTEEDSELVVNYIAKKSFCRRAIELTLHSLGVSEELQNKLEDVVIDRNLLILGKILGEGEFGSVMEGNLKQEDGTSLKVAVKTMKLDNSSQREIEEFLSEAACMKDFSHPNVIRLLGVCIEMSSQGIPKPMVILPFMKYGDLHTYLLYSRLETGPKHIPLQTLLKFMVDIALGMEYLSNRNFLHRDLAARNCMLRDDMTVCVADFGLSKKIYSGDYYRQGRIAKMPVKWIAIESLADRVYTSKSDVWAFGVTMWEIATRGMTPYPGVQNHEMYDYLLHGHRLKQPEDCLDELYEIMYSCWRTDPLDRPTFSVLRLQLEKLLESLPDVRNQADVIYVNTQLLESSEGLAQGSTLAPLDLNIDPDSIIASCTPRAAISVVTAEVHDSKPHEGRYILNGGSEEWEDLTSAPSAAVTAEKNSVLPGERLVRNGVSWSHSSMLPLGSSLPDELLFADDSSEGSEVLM

[3] = biological target: T3, TYRO3 (455-end) (Homo sapiens, UniProt Q06418); test: HTRF kinase activity biochemical assay, TYRO3; conditions: recombinant kinase, 10 uM ATP, 30 minutes pre-incubation; read-out: HTRF TYRO IC50;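 note: biotinylated tyrosine kinase substrate phosphorylation detected via streptavidin-XL665 and Eu3+-cryptate anti-phospho antibody time-resolved fluorescence, read after 1 h detection at room temperature, 384-well format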
T3 construct: TYRO3 (455-end); purchased SignalChem, Canada
T3 sequence (Q06418 455-890 limits assumed): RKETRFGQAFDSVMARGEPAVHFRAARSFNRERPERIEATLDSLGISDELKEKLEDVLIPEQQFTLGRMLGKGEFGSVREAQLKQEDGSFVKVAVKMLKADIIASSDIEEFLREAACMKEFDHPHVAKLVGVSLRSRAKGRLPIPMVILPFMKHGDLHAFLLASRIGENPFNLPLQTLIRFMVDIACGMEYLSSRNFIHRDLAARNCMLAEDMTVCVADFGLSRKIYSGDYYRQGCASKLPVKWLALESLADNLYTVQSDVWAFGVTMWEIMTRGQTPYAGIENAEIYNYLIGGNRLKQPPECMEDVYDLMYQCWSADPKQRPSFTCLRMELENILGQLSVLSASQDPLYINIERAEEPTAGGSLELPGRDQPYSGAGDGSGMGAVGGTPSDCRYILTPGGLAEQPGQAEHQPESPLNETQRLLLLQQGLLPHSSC

Row | IC50 [1] [nM] | IC50 [2] [nM] | IC50 [3] [nM] | Compound
1 | 1.5 | < 1 | 46 | Cn1cc(Nc2ncc(C3CN(c4nc5ccc(OCC(C)(C)C#N)cc5o4)C3)nc2C(N)=O)cn1 [Example 107, 6-{1-[6-(2-cyano-2-methylpropoxy)-1,3-benzoxazol-2-yl]azetidin-3-yl}-3-[(1-methyl-1H-pyrazol-4-yl)amino]pyrazine-2-carboxamide]
2 | 3 | < 1 | 80 | Cn1cc(Nc2ncc(C3CN(c4nc5ccc(-c6cnn(C)c6)cc5o4)C3)nc2C(N)=O)cn1 [Example 92, 3-[(1-methyl-1H-pyrazol-4-yl)amino]-6-{1-[6-(1-methyl-1H-pyrazol-4-yl)-1,3-benzoxazol-2-yl]azetidin-3-yl}pyrazine-2-carboxamide]
3 | 6 | 3 | 1750 | CN(C)C(=O)CCc1ccc2nc(N3CC(c4cnc(Nc5cnn(C)c5)c(C(N)=O)n4)C3)oc2c1 [Example 62, 6-(1-{6-[3-(dimethylamino)-3-oxopropyl]-1,3-benzoxazol-2-yl}azetidin-3-yl)-3-[(1-methyl-1H-pyrazol-4-yl)amino]pyrazine-2-carboxamide]
4 | 3 | < 1 | 65 | Cn1cc(Nc2ncc(C3CN(c4nc5ccc(C(=O)N6CCC[C@@H]6C(C)(C)O)cc5o4)C3)nc2C(N)=O)cn1 [Example 75, 6-(1-{6-[(2R)-2-(2-hydroxypropan-2-yl)pyrrolidine-1-carbonyl]-1,3-benzoxazol-2-yl}azetidin-3-yl)-3-[(1-methyl-1H-pyrazol-4-yl)amino]pyrazine-2-carboxamide]
5 | < 1 | < 1 | 8 | Cn1cc(Nc2ncc(C3CN(c4nc5ccc(OCC6CC6)cc5o4)C3)nc2C(N)=O)cn1 [Example 23, 6-{1-[6-(cyclopropylmethoxy)-1,3-benzoxazol-2-yl]azetidin-3-yl}-3-[(1-methyl-1H-pyrazol-4-yl)amino]pyrazine-2-carboxamide]
6 | 8 | 2 | 570 | Cn1cc(Nc2ncc(C3CN(c4nc5ccc(O[C@H]6CCOC6)cc5o4)C3)nc2C(N)=O)cn1 [Example 69, 3-[(1-methyl-1H-pyrazol-4-yl)amino]-6-[1-(6-{[(3S)-oxolan-3-yl]oxy}-1,3-benzoxazol-2-yl)azetidin-3-yl]pyrazine-2-carboxamide]
7 | 3 | < 1 | 51 | Cn1cc(Nc2ncc(C3CN(c4nc5ccc(-c6ccc(O)cc6)cc5o4)C3)nc2C(N)=O)cn1 [Example 88, 6-{1-[6-(4-hydroxyphenyl)-1,3-benzoxazol-2-yl]azetidin-3-yl}-3-[(1-methyl-1H-pyrazol-4-yl)amino]pyrazine-2-carboxamide]
8 | 5 | 1 | 330 | Cn1cc(Nc2ncc(C3CN(c4nc5ccc(OCC(=O)C6CC6)cc5o4)C3)nc2C(N)=O)cn1 [Example 87, 6-{1-[6-(2-cyclopropyl-2-oxoethoxy)-1,3-benzoxazol-2-yl]azetidin-3-yl}-3-[(1-methyl-1H-pyrazol-4-yl)amino]pyrazine-2-carboxamide]
9 | 20 | 3 | > 12500 | CO[C@H]1CCN(C(=O)Cc2ccc3nc(N4CC(c5cnc(Nc6cnn(C)c6)c(C(N)=O)n5)C4)oc3c2)C1 [Example 70, 6-[1-(6-{2-[(3S)-3-methoxypyrrolidin-1-yl]-2-oxoethyl}-1,3-benzoxazol-2-yl)azetidin-3-yl]-3-[(1-methyl-1H-pyrazol-4-yl)amino]pyrazine-2-carboxamide]
10 | 19 | 8 | 620 | CN(C)C(=O)Cn1cc(Nc2ncc(C3CN(c4nc5ccccc5o4)C3)nc2C(N)=O)cn1 [Example 34, 6-[1-(1,3-benzoxazol-2-yl)azetidin-3-yl]-3-({1-[2-(dimethylamino)-2-oxoethyl]-1H-pyrazol-4-yl}amino)pyrazine-2-carboxamide]
11 | 2 | < 1 | 30 | Cn1cc(Nc2ncc(C3CN(c4nc5ccc(C(=O)N6CCC[C@@H]6CO)cc5o4)C3)nc2C(N)=O)cn1 [Example 59, 6-(1-{6-[(2R)-2-(hydroxymethyl)pyrrolidine-1-carbonyl]-1,3-benzoxazol-2-yl}azetidin-3-yl)-3-[(1-methyl-1H-pyrazol-4-yl)amino]pyrazine-2-carboxamide]
12 | 29 | 10 | 2130 | Cn1cc(Nc2ncc(C3CN(c4nc5ccc(OCC(N)=O)cc5o4)C3)nc2C(N)=O)cn1 [Example 37, 6-{1-[6-(2-amino-2-oxoethoxy)-1,3-benzoxazol-2-yl]azetidin-3-yl}-3-[(1-methyl-1H-pyrazol-4-yl)amino]pyrazine-2-carboxamide]
13 | 16 | 9 | 3550 | CNC(=O)Cc1ccc2nc(N3CC(c4cnc(Nc5cnn(C)c5)c(C(N)=O)n4)C3)oc2c1 [Example 50, 6-(1-{6-[2-(methylamino)-2-oxoethyl]-1,3-benzoxazol-2-yl}azetidin-3-yl)-3-[(1-methyl-1H-pyrazol-4-yl)amino]pyrazine-2-carboxamide]
14 | 6 | 1.8 | 1070 | Cn1cc(Nc2ccc(C3CN(c4nc5ccc(OCC(C)(C)OP(=O)(O)O)cc5o4)C3)nc2C(N)=O)cn1 [Example 106, 1-{[2-(3-{6-carbamoyl-5-[(1-methyl-1H-pyrazol-4-yl)amino]pyridin-2-yl}azetidin-1-yl)-1,3-benzoxazol-6-yl]oxy}-2-methylpropan-2-yl dihydrogen phosphate]
15 | 1.6 | < 1 | 24 | Cc1ncc(-c2ccc3nc(N4CC(c5cnc(Nc6cnn(C)c6)c(C(N)=O)n5)C4)oc3c2)s1 [Example 99, 3-[(1-methyl-1H-pyrazol-4-yl)amino]-6-{1-[6-(2-methyl-1,3-thiazol-5-yl)-1,3-benzoxazol-2-yl]azetidin-3-yl}pyrazine-2-carboxamide]
16 | 11 | 4 | 2030 | Cn1cc(Nc2ncc(C3CN(c4nc5ccc(OCC(=O)N6CCCC6)cc5o4)C3)nc2C(N)=O)cn1 [Example 49, 3-[(1-methyl-1H-pyrazol-4-yl)amino]-6-(1-{6-[2-oxo-2-(pyrrolidin-1-yl)ethoxy]-1,3-benzoxazol-2-yl}azetidin-3-yl)pyrazine-2-carboxamide]
17 | 95 | 35 | 3530 | Cn1cc(Nc2ncc(C3CN(c4nc5ccc(CC(=O)O)cc5o4)C3)nc2C(N)=O)cn1 [Example 65C, [2-(3-{6-carbamoyl-5-[(1-methyl-1H-pyrazol-4-yl)amino]pyrazin-2-yl}azetidin-1-yl)-1,3-benzoxazol-6-yl]acetic acid]
18 | 26 | 4 | 6800 | CN(C)C(=O)COc1ccc2nc(N3CC(c4ccc(Nc5cnn(C)c5)c(C(N)=O)n4)C3)oc2c1 [Example 83, 6-(1-{6-[2-(dimethylamino)-2-oxoethoxy]-1,3-benzoxazol-2-yl}azetidin-3-yl)-3-[(1-methyl-1H-pyrazol-4-yl)amino]pyridine-2-carboxamide]
19 | 6 | 5 | 640 | Cn1cc(Nc2ncc(C3CN(c4nc5ccc(C(C)(C)CO)cc5o4)C3)nc2C(N)=O)cn1 [Example 111, 6-{1-[6-(1-hydroxy-2-methylpropan-2-yl)-1,3-benzoxazol-2-yl]azetidin-3-yl}-3-[(1-methyl-1H-pyrazol-4-yl)amino]pyrazine-2-carboxamide]

Row | Compound | IC50 [1] [nM] | IC50 [2] [nM] | IC50 [3] [nM]
20 | CC(C)(O)CCOc1ccc2nc(N3CC(c4cnc(Nc5cnn(C(C)(C)C)c5)c(C(N)=O)n4)C3)oc2c1 [Example 94, 3-[(1-tert-butyl-1H-pyrazol-4-yl)amino]-6-{1-[6-(3-hydroxy-3-methylbutoxy)-1,3-benzoxazol-2-yl]azetidin-3-yl}pyrazine-2-carboxamide] | 3 | < 1 | 910
